Source: patent US8470772B2, “Leptin agonist and methods of use” (Temple University—Of The Commonwealth System of Higher …, priority 2008, dated 2013)
Starred links: 1 amine or outer side, 2 acyl side, 3 side chain; linkers in the order of their positions; H or OH if unused. Non-standard residues stand in square brackets, D forms with d. No end group written: not given here. *: point of attachment. βGlcAc4 = CC(=O)OC[C@H]1O[C@@H](*)[C@H](OC(C)=O)[C@@H](OC(C)=O)[C@@H]1OC(C)=O; Tyr(Me) = O-methyl Tyr, COc1ccc(C[C@H](N[*:1])C(=O)[*:2])cc1; Tyr(3,5-I2) = N[C@@H](Cc1cc(I)c(O)c(I)c1)C(=O)O; dGla = N[C@H](CC(C(=O)O)C(=O)O)C(=O)O; Dap = NC[C@H](N)C(=O)O; βAla = NCCC(=O)O

What was measured:
[1] = molecular target: T1, ObR extracellular domain (Homo sapiens, UniProt P48357); test: Dot-blot and ELISA-type solid-phase binding assay; settings: dot-blot, Western-blot or ELISA; 10 and 20 μg peptide load in ELISA
T1 construct: human IgG Fc-conjugated ObR extracellular domain (R&D Systems); purchased R&D Systems
T1 sequence (P48357 22-839 limits assumed): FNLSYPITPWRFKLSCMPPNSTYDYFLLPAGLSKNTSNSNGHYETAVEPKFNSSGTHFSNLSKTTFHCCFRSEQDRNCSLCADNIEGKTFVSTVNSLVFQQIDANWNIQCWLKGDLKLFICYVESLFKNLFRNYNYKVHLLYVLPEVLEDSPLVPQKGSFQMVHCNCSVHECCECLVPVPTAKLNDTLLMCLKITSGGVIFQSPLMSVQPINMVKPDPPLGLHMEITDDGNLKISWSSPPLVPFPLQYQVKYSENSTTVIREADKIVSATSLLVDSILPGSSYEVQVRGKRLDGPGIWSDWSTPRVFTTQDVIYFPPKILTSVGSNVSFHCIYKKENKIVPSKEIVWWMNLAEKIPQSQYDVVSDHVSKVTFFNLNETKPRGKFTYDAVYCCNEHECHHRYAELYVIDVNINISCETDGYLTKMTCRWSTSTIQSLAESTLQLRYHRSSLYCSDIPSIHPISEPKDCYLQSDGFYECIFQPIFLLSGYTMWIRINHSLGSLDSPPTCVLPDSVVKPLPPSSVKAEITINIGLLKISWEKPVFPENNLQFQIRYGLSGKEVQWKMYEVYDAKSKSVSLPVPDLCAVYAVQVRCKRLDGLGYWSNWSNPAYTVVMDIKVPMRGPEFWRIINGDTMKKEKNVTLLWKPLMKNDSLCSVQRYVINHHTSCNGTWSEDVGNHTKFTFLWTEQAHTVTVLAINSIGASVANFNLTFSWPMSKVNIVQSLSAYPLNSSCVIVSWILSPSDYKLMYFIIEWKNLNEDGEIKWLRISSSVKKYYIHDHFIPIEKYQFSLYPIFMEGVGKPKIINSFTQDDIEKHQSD
Description: For dot-blot and ELISA assays, the leptin fragments were dissolved in electroblot transfer buffer (25 mM Tris and […] buffer containing 20% methanol) and were applied to either a nitrocellulose membrane or dried upon ELISA plates (Otvos, L., Jr., and Szendrei, G. I. (1996) Enzyme-linked immunosorbent assay of peptides. In: Neuropeptide Protocols (G. B. Irvine and C. H. Williams, eds.). Humana Press, Totowa, N.J., pp. 269-275). The solid surfaces were blocked with 5% BSA in a PBS-0.5% Tween 20 buffer (PBST) for 3 hours at room temperature and were subsequently incubated with 10 μg/mL solution of human IgG Fc-conjugated ObR extracellular domain (R&D Systems) dissolved in Tris-buffered saline-0.1% Tween 20 buffer (TBST) containing 1% bovine serum albumin (BSA) for 1 hour. A monoclonal goat antibody (Santa Cruz Biotechnology), specific for the N-terminus of human ObR, was added to the assay mixture, followed by addition of a horseradish peroxidase(HRP)-conjugated anti-goat IgG donkey antibody for the dot-blot assay, and HRP-conjugated anti-goat Fc mouse antibody for ELISA assay (used at a 1:15,000 dilution in PBST and 1% BSA). Between reagents, the solid surfaces were washed extensively with PBST. After washing with PBST, the membrane was treated with a chemiluminescence luminol oxidizer (NEN) for 1 min. The resultant chemiluminescence was exposed to a X-Omat blue XB-1 film (Kodak) for 10 seconds, and the exposed film was developed. The ELISA was developed using an HRP ELISA kit including tetramethylbenzidine as a substrate and sulfuric acid as a stop solution. Optical absorbance values were read at 490 nm using a microplate reader.

[2] = tested on: MCF-7 cells; test: MCF-7 cell stimulation (cell growth) assay, cell counts by trypan blue exclusion; assay type: cell-based, human; settings: for reversal of leptin-induced cell stimulation: leptin present; for antagonistic activity on leptin-induced MCF-7 cell proliferation: in the presence of exogenous leptin; for agonistic activity on MCF-7 cells: without leptin; for Relative stimulation (%) of MCF-7 cells, No leptin added: no exogenous leptin; for MCF-7 cell count increase: no leptin
Excerpt: (§1) For the evaluation of the biological activity of the synthesized leptin Site III peptide fragments, human cell lines were selected in which the ObR expression level is known. Two ObR-positive human cell models were used: MCF-7 breast cancer cells and DU-45 prostate cancer cells. Both cell lines express ObR, and leptin and leptin analogues stimulate their growth (C. Garofalo, et al., Clin. Cancer Res., 2004, 10, 6466-6475; C. Garofalo, et al., Clin. Cancer Res., 2006, 12, 1447-1453). Normal mammary epithelial MCF-10 cells lacking ObR were used as a negative control (X. Hu, et al., J. Natl. Cancer Inst., 2002, 94, 1704-1711).
Biological activity of the Site III peptides was assayed as follows. MCF-7 cells were stimulated with 6 nM full-sized leptin. The smaller leptin fragments and analogs were added to the cell culture at a concentration of 10 nM, 100 nM or 1 μM. Leptin at […] concentration stimulated MCF-7 cell growth by approximately 40%, in line with previous observations (C. Garofalo, et al., Clin. Cancer Res., 2004, 10, 6466-6475). All Site III peptides bound to the extracellular domain of ObR as documented by dot-blot or Western-blot analysis. […] In fact, it reversed leptin induced stimulation of MCF-7 cells at as low as 10 nM peptide concentration, with an additional 50% reduction in cell counts at 1 μM. When the assay was run at a more reliably measurable 1 μM peptide concentration, a consistent 6% decrease in cell numbers could be observed compared to the leptin only samples. In summary, in the presence of exogenously added full-sized leptin these assays verified the strong antagonist activity of the Site III Ala,Ala mutant.
(§2) The cell stimulation activity of the Site III peptides was assayed as follows. Human leptin was purchased from R&D Systems and used at a concentration of 100 ng/mL (approximately 6 nM). MCF-7 and DU-45 cells naturally expressing ObR were grown in a standard medium DMEM:F12 plus 5% fetal bovine serum. MCF-10 was grown in serum-free mammalian epithelial growth medium supplemented with 100 ng/mL cholera toxin. Seventy percent confluent cultures were synchronized in serum-free medium (DMEM plus 10 μM FeSO4, plus 0.5% albumin) for 24 h and then treated with leptin and/or peptides (different doses) for 5 days. Cell counts before and after treatment were determined by counting the cells using trypan blue exclusion. All assays were conducted in triplicate and repeated at least twice.

[3] = tested on: astrocytes, brain capillary endothelial cells; test: In vitro model of blood-brain-barrier penetration (Transwell cell layers); assay type: in vitro ADME, human; settings: 0.1 mM peptide in upper compartment
Excerpt: To confirm the ability of the E1 peptides to cross the blood-brain barrier, penetration of the protected (E1Ac) and free (E1Free) glycopeptides across confluent layers of astrocytes, brain endothelial cells, or a double layer of these two cell types was examined, in comparison with the Site III Ala,Ala non-glycosylated analog.
A confluent monolayer of human astrocytes or brain capillary endothelial cells, or a dual layer of both cell types (astrocytes first, followed by endothelial cells) were grown at 37° C. on polycarbonate filters (Costar, Transwell, 0.4 μm) that were pretreated with collagen. Under these conditions, the endothelial cells retain the characteristics of the blood-brain-barrier, which include complex tight junctions, low rates of pinocytosis and low enzyme levels (S. Lundquist, et al., Pharm. Res., 2002, 19, 976-981). A 0.1 mM solution of each of E1Ac, E1Free or Site III Ala,Ala was added to the upper compartment of the Transwell plates. The plates were then placed back in the incubator and samples were taken from the bottom compartments at 0, 5, 10, 30, and 120 minute intervals. The identity and quantity of peptides that had penetrated through the cell layers were subsequently analyzed by RP-HPLC and MALDI-MS.

[4] = tested on: DU-45 cells; test: DU-45 cell stimulation (proliferation) assay; assay type: cell-based, human
Excerpt: as §1
as §2, with “All assays were conducted in triplicate and repeated at least twice.” left out

[5] = tested on: MCF-10 cells; test: MCF-10 control cell proliferation assay (cells lacking ObR); assay type: cell-based, human; settings: for effect on the proliferation of MCF-10 cells: control cell line lacking ObR
Excerpt: as §1, §2

pyrrhocoricin: negative control antibacterial peptide with Pro-Arg-Pro repeats, equal in size with the leptin fragments (VDKGSYLPRPTPPRPIYNRN) [reference compound]
binding to the extracellular domain of ObR [1]: did not bind

Gly-Tyr(I2)-Ser-Thr-D-Gla-Val-Val-D-Ala-Leu-Ser-Arg-Leu [F2]
reversal of leptin-induced cell stimulation ([2]; 1 μM peptide): 15%
Relative stimulation (%) of MCF-7 cells, With 10 nM leptin ([2]; 1 μM peptide, with 10 nM leptin): −15%
antagonistic activity on leptin-induced MCF-7 cell proliferation [2]: antagonists
agonistic activity on MCF-7 cells [2]: agonists

Gly-Tyr(I2)-Ser-Thr-Glu-Val-Va1-βAla-Leu-Ser-Arg-Leu (G[Tyr(3,5-I2)]STEVV[βAla]LSRL-NH2) [A4]
Relative stimulation (%) of MCF-7 cells, No leptin added ([2]; 1 μM peptide): +102%

SGYAAEVVALSRLQGS-NH2 [Site III Ala,Ala, Ser-Gly-Tyr-Ala-Ala-Glu-Val-Val-Ala-Leu-Ser-Arg-Leu-Gln-Gly-Ser]
earliest time point at which peptide was detected in the bottom compartment [3]: 30 min

SGYSTEVVALSRLQGS [Site III 117-132]
reduction in leptin-induced cell growth ([2]; 1 μM peptide, in the presence of 10 nM leptin): 21%
agonistic activity on MCF-7 cells [2]: did not noticeably influence the cell growth
effect on the proliferation of DU-45 cells [4]: no effect
effect on the proliferation of MCF-10 cells ([5]; listed as Site III peptide): did not demonstrate a major effect
effect on the proliferation of MCF-10 cells ([5]; listed as site III fragment): no effect

Tyr(Me)-Ser-Thr-Glu-Val-Val-βAla-Leu-Ser-Arg-Leu ([Tyr(Me)]STEVV[βAla]LSRL-NH2) [A11]
Relative stimulation (%) of MCF-7 cells, No leptin added ([2]; 1 μM peptide): +19%
antagonistic activity on leptin-induced MCF-7 cell proliferation [2]: basically inactive

Tyr(I2)-Serβ(GlcAc4)-Thr-Glu-Val-Val-Ala-Leu-Ser-Arg-Leu-Dap(Ac) ([Tyr(3,5-I2)]S(βGlcAc4)TEVVALSRL[Dap](Ac)-NH2) [E1Ac]
binding to the extracellular domain of ObR [1]: bound
MCF-7 cell count increase ([2]; 100 nM peptide): 54%
further increase of leptin-induced cell stimulation ([2]; 1000 nM peptide, in the presence of 6 nM leptin): 17%
MCF-7 cell count increase ([2]; 1000 nM peptide): 101%
overall agonist character on cells expressing ObR ([2]; in the presence and absence of leptin): full agonists
activity on MCF-10 normal mammary epithelial cells ([5]; 100 nM and 1000 nM peptide): inactive

Leptin: Human leptin purchased from R&D Systems; full-length sequence SEQ ID NO:1
stimulation of MCF-7 cell growth ([2]; leptin at 10 nM): approximately 40%

Tyr(Me)-Ser-Thr-D-Gla-Val-Val-D-Ala-Leu-Ser-Arg-Leu ([Tyr(Me)]ST[dGla]VV[dA]LSRL-NH2) [D12]
reversal of leptin-induced cell stimulation ([2]; 1 μM peptide): 43%
antagonistic activity on leptin-induced MCF-7 cell proliferation [2]: antagonists
agonistic activity on MCF-7 cells [2]: agonists
